The source of these data is patent US5610161A, “Therapeutic agents” (The Boots Company PLC, priority 1992, dated 1997).

One experiment deals with reserpine-induced ptosis. The experiment is described as follows: Test 2: prevention of reserpine-induced ptosis (eye closure) in rats, oral. Type of experiment: in vivo, rats (Charles River CD strain, male). The conditions noted are these: for ED50: Rattus norvegicus, read-out: Test 2 ED50 (dose causing 50% prevention of the reserpine-induced ptosis).
Experiment [1] relates to reserpine-induced fall in body temperature. Kind of experiment: Test 1: reversal of reserpine-induced hypothermia in mice, oral. The format is in vivo, mice (Charles River CD1 strain, male). The conditions noted are these: for ED50: Mus musculus, read-out: Test 1 ED50 (dose causing 50% reversal of the reserpine-induced fall in body temperature).
Experimental: Male mice of the Charles River CD1 strain weighing between 18 and 30 g were separated into groups of five and were supplied with food and water ad libitum. After five hours the body temperature of each mouse was taken orally and the mice were injected intraperitoneally with reserpine (10 mg/kg) in solution in deionised water containing ascorbic acid (50 mg/ml). The amount of liquid injected was 10 ml/kg of body weight. Nine hours after the start of the test food was withdrawn but water was still available ad libitum. Twenty-four hours after the start of the test the temperatures of the mice were taken and the mice were given the test compound orally at a dose volume of 10 ml/kg of body weight. The compound was administered in aqueous solution. Three hours later the temperatures of all the mice were again taken. The percentage reversal of the reserpine-induced fall in body temperature was then calculated by the formula: [formula] The percentage reversal value for each group of five mice was determined at more than one dose rate to enable a value of the dose which causes a 50% reversal (ED50) to be obtained.
The mark [2] stands for this setting: rats, oral, reserpine 0.75 mg/kg i.v., ptosis scored 3 h later.
The mark [3] stands for this setting: mice, oral, reserpine 10 mg/kg i.p., temperature 3 h after compound.

Where a name gives a salt, the structure may show the parent alone. Read-outs that look alike come from different tables or passages of the source.

Text for reserpine-induced ptosis: Male rats of the Charles River CD strain weighing between 140 and 180 g were randomly separated into five rats in each cage and supplied with food and water ad libitum. Eighteen hours prior to initiation of the test four of the five rats were marked with a pen such that each rat was individually identifiable; food was then withdrawn. The following morning, two hours before the test, the rats were weighed and a semi-randomised code was used to allocate treatments to rats. The test commenced by orally administering either:
a) the test compound in solution in deionised water at a dose volume of 10 ml/kg of body weight, followed by immediate intravenous injection of 1 ml/kg of body weight of reserpine (0.75 mg/kg) in solution in deionised water containing 238 mM citric acid, 1.02% v/v Tween 80 and 0.2% v/v benzyl alcohol (treated group);
b) deionised water at a dose volume of 10 ml/kg of body weight, followed by immediate intravenous injection of 1 ml/kg of body weight of reserpine (0.75 mg/kg) in solution in deionised water containing 238 mM citric acid, 1.02% v/v Tween 80 and 0.2% v/v benzyl alcohol (positive control group); or
c) deionised water at a dose volume of 10 ml/kg of body weight, followed by immediate intravenous injection of 1 ml/kg of body weight of deionised water containing 238 mM citric acid, 1.02% v/v Tween 80 and 0.2% v/v benzyl alcohol (negative control group).
The degree of prosis was scored 45 seconds and 75 seconds later using the following observer rating system: 0=eye fully open, 1=eye 1/4 closed, 2=eye 1/2 closed, 3=eye 3/4 closed, 4=eye fully closed. A mean ptosis score was then calculated for all identically treated rats usually comprising a group of eight rats. […] The mean ptosis score for each group of treated rats was determined at more than one dose of test compound to enable a value for the dose (ED50) which causes a 50% prevention of the reserpine-induced ptosis to be obtained.

In general, ED50 refers to the dose that gives a 50% effect, or the effect in half of the subjects. For `OC1(c2ccc(Cl)cc2)CCCNC12CCCCC2` (centres unmarked) [Example 1, 5-(4-chlorophenyl)-5-hydroxy-1-azaspiro[5.5]undecane], the median effective dose (ED50) in the experiment on reserpine-induced ptosis (setting [2]) turned out to be 11.3 mg/kg. Further, in experiment [1] (setting [3]), the “Test 1 ED50 (dose causing 50% reversal of the reserpine-induced fall in body temperature)” value is given as “Inactive @ 30”.

Take `OC1(c2cccc(Cl)c2)CCCNC12CCCCC2` (centres unmarked) [Example 2, 5-(3-chlorophenyl)-5-hydroxy-1-azaspiro[5.5]undecane]: the 50% effective dose (ED50) in the experiment on reserpine-induced ptosis (setting [2]) was 8.1 mg/kg; in experiment [1] (setting [3]) it was around 16 mg/kg.

As for `OC1(c2ccc(Cl)c(Cl)c2)CCCNC12CCCCC2` (centres unmarked) [Example 3, 5-(3,4-dichlorophenyl)-5-hydroxy-1-azaspiro[5.5]undecane], the ED50 in the experiment on reserpine-induced ptosis (setting [2]) was 7.7 mg/kg; in experiment [1] (setting [3]), 10.7 mg/kg.

For the compound `CCN1CCCC(O)(c2ccc(Cl)cc2)C12CCCCC2.Cl` (centres unmarked) [Example 4, 5-(4-chlorophenyl)-1-ethyl-5-hydroxy-1-azaspiro[5.5]undecane hydrochloride], the 50% effective dose (ED50) in the experiment with reserpine-induced ptosis (setting [2]) is 2.2 mg/kg. In experiment [1] (setting [3]), the “Test 1 ED50 (dose causing 50% reversal of the reserpine-induced fall in body temperature)” value was “Inactive @ 30”.

In the case of `Clc1ccc(C2=CCCNC23CCCCC3)cc1.O=S(=O)(O)O` [Example 5, 5-(4-chlorophenyl)-1-azaspiro[5.5]undec-4-ene sulphate], the ED50 is 7 mg/kg in the experiment on reserpine-induced ptosis (po, 3 h) and around 20 mg/kg in experiment [1] (po, 3 h).

For `Clc1ccc(C2=CCCNC23CCCCC3)cc1` [Example 6, 5-(4-chlorophenyl)-1-azaspiro[5.5]undec-4-ene 0.5 sulphate, 2.1 hydrate], the results for the ED50 (in the experiment on reserpine-induced ptosis (setting [2]); in experiment [1] (setting [3])) were 2.7 mg/kg and 14.1 mg/kg, respectively.

As to `Cl.Clc1ccc(C2=CCCNC23CCCCC3)cc1` [Example 7, 5-(4-chlorophenyl)-1-azaspiro[5.5]undec-4-ene hydrochloride], the median effective dose (ED50) in the experiment with reserpine-induced ptosis (setting [2]) was determined as 1.4 mg/kg; in experiment [1] (setting [3]), 2 mg/kg.

On to `Cl.Clc1cccc(C2=CCCNC23CCCCC3)c1` [Example 8, 5-(3-chlorophenyl)-1-azaspiro[5.5]undec-4-ene hydrochloride], for which the ED50 with reserpine-induced ptosis (po, 3 h) stood at 5.1 mg/kg; in experiment [1] (po, 3 h) it was 16.4 mg/kg.

As to `Cl.Clc1ccc(C2=CCCNC23CCCCC3)cc1Cl` [Example 9, 5-(3,4-dichlorophenyl)-1-azaspiro[5.5]undec-4-ene hydrochloride], the ED50 was 3.9 mg/kg with reserpine-induced ptosis (setting [2]) and around 11 mg/kg in experiment [1] (setting [3]).

On to `Fc1ccc(C2=CCCNC23CCCCC3)cc1.O=S(=O)(O)O` [Example 10, 5-(4-fluorophenyl)-1-azaspiro[5.5]undec-4-ene sulphate], for which the 50% effective dose (ED50) in the experiment with reserpine-induced ptosis (po, 3 h) is 8.5 mg/kg; in experiment [1] (po, 3 h) it was around 18 mg/kg.

Regarding `Cl.FC(F)(F)c1cccc(C2=CCCNC23CCCCC3)c1` [Example 11, 5-[3-(trifluoromethyl)phenyl]-1-azaspiro[5.5]undec-4-ene hydrochloride], the “Test 2 ED50 (dose causing 50% prevention of the reserpine-induced ptosis)” value with reserpine-induced ptosis (setting [2]) was “Inactive @ 30”. Also, the ED50 in experiment [1] (setting [3]) is around 22 mg/kg.

Regarding `C1=C(c2ccc3ccccc3c2)C2(CCCCC2)NCC1.Cl` [Example 12, 5-(2-naphthyl)-1-azaspiro[5.5]undec-4-ene hydrochloride], the 50% effective dose (ED50) (with reserpine-induced ptosis (setting [2]); in experiment [1] (setting [3])) was 11.9 mg/kg throughout.

Take `Cl.Oc1ccc(C2=CCCNC23CCCCC3)cc1` [Example 13, 5-(4-hydroxyphenyl)-1-azaspiro[5.5]undec-4-ene hydrochloride]: in the experiment with reserpine-induced ptosis (setting [2]), the ED50 worked out at 21.8 mg/kg. Further, the “Test 1 ED50 (dose causing 50% reversal of the reserpine-induced fall in body temperature)” value in experiment [1] (setting [3]) is given as “Inactive @ 30”.

In the case of `CN1CCC=C(c2ccc(Cl)cc2)C12CCCCC2.Cl` [Example 14, 5-(4-chlorophenyl)-1-methyl-1-azaspiro[5.5]undec-4-ene hydrochloride], the ED50 with reserpine-induced ptosis (setting [2]) was 30 mg/kg; in experiment [1] (setting [3]) it was around 12 mg/kg.

`Clc1ccc(C2=CCCNC23CCCCC3)cc1.O=C(O)/C=C/C(=O)O` [Example 15, 5-(4-chlorophenyl)-1-azaspiro[5.5]undec-4-ene fumarate]: the ED50 in the experiment on reserpine-induced ptosis (setting [2]) was 3.8 mg/kg; in experiment [1] (setting [3]), 6.9 mg/kg.

`CS(=O)(=O)O.Clc1ccc(C2=CCCNC23CCCCC3)cc1` [Example 16, 5-(4-chlorophenyl)-1-azaspiro[5.5]undec-4-ene methanesulphonate]: the results for the ED50 (in the experiment on reserpine-induced ptosis (setting [2]); in experiment [1] (setting [3])) were 3.3 mg/kg and 9.4 mg/kg, respectively.

For the compound `Clc1ccc(C2=CCCNC23CCCC3)cc1.O=S(=O)(O)O` [Example 17, 10-(4-chlorophenyl)-6-azaspiro[4.5]dec-9-ene sulphate], the ED50 in the experiment on reserpine-induced ptosis (po, 3 h) is 3.1 mg/kg; in experiment [1] (po, 3 h), around 23 mg/kg.

With `Cl.Clc1ccc(C2CCCNC23CCCCC3)cc1` (centres unmarked) [Example 18, 5-(4-chlorophenyl)-1-azaspiro[5.5]undecane hydrochloride], the ED50 with reserpine-induced ptosis (setting [2]) came out at 0.5 mg/kg; in experiment [1] (setting [3]), 4.8 mg/kg.

Consider `COc1ccc(C2CCCNC23CCCCC3)cc1.Cl` (centres unmarked) [Example 19, 5-(4-methoxyphenyl)-1-azaspiro[5.5]undecane hydrochloride], for which the 50% effective dose (ED50) was 5.8 mg/kg in the experiment on reserpine-induced ptosis (setting [2]) and around 14 mg/kg in experiment [1] (setting [3]).

In the case of `CCCN1CCC=C(c2ccc(Cl)cc2)C12CCCCC2` [Example 20, 5-(4-chlorophenyl)-1-propyl-1-azaspiro[5.5]undec-4-enehydrochloride], the results for the ED50 (in the experiment with reserpine-induced ptosis (setting [2]); in experiment [1] (setting [3])) were 3 mg/kg and around 26 mg/kg, respectively.

On to `C=CCN1CCC=C(c2ccc(Cl)cc2)C12CCCCC2.O=C(O)/C=C\C(=O)O` [Example 21, 1-allyl-5-(4-chlorophenyl)-1-azaspiro[5.5]undec-4-ene maleate], for which, in the experiment with reserpine-induced ptosis (setting [2]), the ED50 worked out at 9.1 mg/kg. Further, the “Test 1 ED50 (dose causing 50% reversal of the reserpine-induced fall in body temperature)” value in experiment [1] (setting [3]) was “Inactive @ 30”.

As to `COCCN1CCC=C(c2ccc(Cl)cc2)C12CCCCC2` [Example 22, 5-(4-chlorophenyl)-1-(2-methoxyethyl)-1-azaspiro[5.5]undec-4-ene 1.25 hydrochloride], the ED50 is 10.1 mg/kg in the experiment on reserpine-induced ptosis (setting [2]) and around 30 mg/kg in experiment [1] (setting [3]).

For `C1=C(c2ccccc2)C2(CCCCC2)NCC1.Cl` [Example 24, 5-phenyl-1-azaspiro[5.5]undec-4-ene hydrochloride], in the experiment on reserpine-induced ptosis (setting [2]), the “Test 2 ED50 (dose causing 50% prevention of the reserpine-induced ptosis)” value is listed as “Inactive @ 30”. Further, in experiment [1] (setting [3]), the ED50 is around 11.5 mg/kg.

As to `C1=C(c2ccc(-c3ccccc3)cc2)C2(CCCCC2)NCC1.Cl` [Example 25, 5-(4-biphenylyl)-1-azaspiro[5.5]undec-4-ene hydrochloride], the ED50 in the experiment with reserpine-induced ptosis (setting [2]) came out at 9.9 mg/kg. Also, the “Test 1 ED50 (dose causing 50% reversal of the reserpine-induced fall in body temperature)” value in experiment [1] (setting [3]) is recorded as “Inactive @ 30”.

Consider `Cl.Clc1ccc(C2=CCNC23CCCCC3)cc1` [Example 26, 4-(4-chlorophenyl)-1-azaspiro[4.5]dec-3-ene hydrochloride], for which the median effective dose (ED50) with reserpine-induced ptosis (setting [2]) was found to be 5.6 mg/kg. In experiment [1] (setting [3]), the “Test 1 ED50 (dose causing 50% reversal of the reserpine-induced fall in body temperature)” value is “Inactive @ 30”.
